Experimental data: PubChem BioAssay AID1963961 (Molecular Pharmacology Branch, DTP, NCI, 2024)

Tested on: K98450-129-R-PDC multicell spheroids, viability
Assay: Anticancer human tumor K98450-129-R-PDC patient-derived colon adenocarcinoma cell line growth inhibition [PI3K]
Details: for IC50: curve of first compound; for viability, T/C: stronger effect = lower value
Outline: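 We assembled tumor spheroids that included a stromal compartment of HUVEC and MSCs, then exposed them to targeted agents alone and together with PI3K pathway inhibitors. Concentration series descended by half-log from clinically achievable Cmax levels. Viability served as the endpoint.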

[1] = second compound 0.0316 µM, first compound 0.0316 µM
[2] = second compound 0.0316 µM, first compound 0.1 µM
[3] = second compound 0.0316 µM, first compound 0.316 µM
[4] = second compound 0.0316 µM, first compound 1 µM
[5] = second compound 0.0316 µM, first compound 3.16 µM
[6] = second compound 0.0316 µM, first compound 10 µM
[7] = second compound 0.1 µM, first compound 0.0316 µM
[8] = second compound 0.1 µM, first compound 0.1 µM
[9] = second compound 0.1 µM, first compound 0.316 µM
[10] = second compound 0.1 µM, first compound 1 µM
[11] = second compound 0.1 µM, first compound 3.16 µM
[12] = second compound 0.1 µM, first compound 10 µM
[13] = second compound 0.316 µM, first compound 0.0316 µM
[14] = second compound 0.316 µM, first compound 0.1 µM
[15] = second compound 0.316 µM, first compound 0.316 µM
[16] = second compound 0.316 µM, first compound 1 µM
[17] = second compound 0.316 µM, first compound 3.16 µM
[18] = second compound 0.316 µM, first compound 10 µM
[19] = second compound 1 µM, first compound 0.0316 µM
[20] = second compound 1 µM, first compound 0.1 µM
[21] = second compound 1 µM, first compound 0.316 µM
[22] = second compound 1 µM, first compound 1 µM
[23] = second compound 1 µM, first compound 3.16 µM
[24] = second compound 1 µM, first compound 10 µM
[25] = second compound 3.16 µM, first compound 0.0316 µM
[26] = second compound 3.16 µM, first compound 0.1 µM
[27] = second compound 3.16 µM, first compound 0.316 µM
[28] = second compound 3.16 µM, first compound 1 µM
[29] = second compound 3.16 µM, first compound 3.16 µM
[30] = second compound 3.16 µM, first compound 10 µM
[31] = second compound 10 µM, first compound 0.0316 µM
[32] = second compound 10 µM, first compound 0.1 µM
[33] = second compound 10 µM, first compound 0.316 µM
[34] = second compound 10 µM, first compound 1 µM
[35] = second compound 10 µM, first compound 3.16 µM
[36] = second compound 10 µM, first compound 10 µM
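Note: spheroids exposed to agents for seven days before read-out.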

CC(C)NCC(C(=O)N1CCN(c2ncnc3c2C(C)CC3O)CC1)c1ccc(Cl)cc1 (stereo not drawn) + Cc1nc(NC(=O)N2CCCC2C(N)=O)sc1-c1ccnc(C(C)(C)C(F)(F)F)c1
IC50 (second compound 0.0316 µM): > 10 µM
IC50 (second compound 0.1 µM): > 10 µM
IC50 (second compound 0.316 µM): > 10 µM
IC50 (second compound 1 µM): > 10 µM
IC50 (second compound 3.16 µM): > 10 µM
IC50 (second compound 10 µM): > 10 µM
viability, T/C [1]: 104%
viability, T/C [2]: 99.1%
viability, T/C [3]: 107%
viability, T/C [4]: 104%
viability, T/C [5]: 100%
viability, T/C [6]: 102%
viability, T/C [7]: 108%
viability, T/C [8]: 98.8%
viability, T/C [9]: 103%
viability, T/C [10]: 100%
viability, T/C [11]: 103%
viability, T/C [12]: 99.9%
viability, T/C [13]: 104%
viability, T/C [14]: 105%
viability, T/C [15]: 104%
viability, T/C [16]: 95.2%
viability, T/C [17]: 101%
viability, T/C [18]: 97%
viability, T/C [19]: 84.6%
viability, T/C [20]: 93.1%
viability, T/C [21]: 96.5%
viability, T/C [22]: 89.6%
viability, T/C [23]: 102%
viability, T/C [24]: 94.5%
viability, T/C [25]: 86.6%
viability, T/C [26]: 84.1%
viability, T/C [27]: 90.2%
viability, T/C [28]: 80.3%
viability, T/C [29]: 95.6%
viability, T/C [30]: 91.1%
viability, T/C [31]: 70.7%
viability, T/C [32]: 78%
viability, T/C [33]: 77%
viability, T/C [34]: 73.1%
viability, T/C [35]: 78.1%
viability, T/C [36]: 75%

CCN1CCN(Cc2ccc(Nc3ncc(F)c(-c4cc(F)c5nc(C)n(C(C)C)c5c4)n3)nc2)CC1 + Cc1nc(NC(=O)N2CCCC2C(N)=O)sc1-c1ccnc(C(C)(C)C(F)(F)F)c1
IC50 (second compound 0.0316 µM): > 1 µM
IC50 (second compound 0.1 µM): > 1 µM
IC50 (second compound 0.316 µM): > 1 µM
IC50 (second compound 1 µM): > 1 µM
IC50 (second compound 3.16 µM): > 1 µM
IC50 (second compound 10 µM): > 1 µM
viability, T/C (second compound 0.0316 µM, first compound 0.00316 µM): 115%
viability, T/C (second compound 0.0316 µM, first compound 0.01 µM): 97.7%
viability, T/C [1]: 106%
viability, T/C [2]: 91.1%
viability, T/C [3]: 86.9%
viability, T/C [4]: 94.8%
viability, T/C (second compound 0.1 µM, first compound 0.00316 µM): 115%
viability, T/C (second compound 0.1 µM, first compound 0.01 µM): 95.9%
viability, T/C [7]: 99.8%
viability, T/C [8]: 93.5%
viability, T/C [9]: 96.8%
viability, T/C [10]: 91.1%
viability, T/C (second compound 0.316 µM, first compound 0.00316 µM): 103%
viability, T/C (second compound 0.316 µM, first compound 0.01 µM): 102%
viability, T/C [13]: 91.1%
viability, T/C [14]: 87.7%
viability, T/C [15]: 85.3%
viability, T/C [16]: 96%
viability, T/C (second compound 1 µM, first compound 0.00316 µM): 98.3%
viability, T/C (second compound 1 µM, first compound 0.01 µM): 89.4%
viability, T/C [19]: 91.2%
viability, T/C [20]: 87.4%
viability, T/C [21]: 84.6%
viability, T/C [22]: 85.6%
viability, T/C (second compound 3.16 µM, first compound 0.00316 µM): 84.8%
viability, T/C (second compound 3.16 µM, first compound 0.01 µM): 80.6%
viability, T/C [25]: 86.2%
viability, T/C [26]: 84.7%
viability, T/C [27]: 79.3%
viability, T/C [28]: 83.5%
viability, T/C (second compound 10 µM, first compound 0.00316 µM): 73.7%
viability, T/C (second compound 10 µM, first compound 0.01 µM): 75.9%
viability, T/C [31]: 70.6%
viability, T/C [32]: 67.5%
viability, T/C [33]: 67%
viability, T/C [34]: 70.4%

Cn1ncc(Cl)c1-c1cc(C(=O)NC(CN)Cc2cccc(F)c2)sc1Cl (stereo not drawn) + Cc1nc(NC(=O)N2CCCC2C(N)=O)sc1-c1ccnc(C(C)(C)C(F)(F)F)c1
IC50 (second compound 0.0316 µM): > 10 µM
IC50 (second compound 0.1 µM): > 10 µM
IC50 (second compound 0.316 µM): > 10 µM
IC50 (second compound 1 µM): > 10 µM
IC50 (second compound 3.16 µM): > 10 µM
IC50 (second compound 10 µM): > 10 µM
viability, T/C [1]: 97.8%
viability, T/C [2]: 95%
viability, T/C [3]: 109%
viability, T/C [4]: 93.1%
viability, T/C [5]: 88.9%
viability, T/C [6]: 74.3%
viability, T/C [7]: 109%
viability, T/C [8]: 99.4%
viability, T/C [9]: 99.7%
viability, T/C [10]: 90.8%
viability, T/C [11]: 89.2%
viability, T/C [12]: 78.3%
viability, T/C [13]: 101%
viability, T/C [14]: 93.1%
viability, T/C [15]: 91.9%
viability, T/C [16]: 92.1%
viability, T/C [17]: 91.3%
viability, T/C [18]: 76.9%
viability, T/C [19]: 94%
viability, T/C [20]: 91%
viability, T/C [21]: 97.1%
viability, T/C [22]: 89.6%
viability, T/C [23]: 91.7%
viability, T/C [24]: 72.9%
viability, T/C [25]: 82.9%
viability, T/C [26]: 85.1%
viability, T/C [27]: 86.8%
viability, T/C [28]: 80.4%
viability, T/C [29]: 86.2%
viability, T/C [30]: 63.8%
viability, T/C [31]: 66.9%
viability, T/C [32]: 69.6%
viability, T/C [33]: 74.1%
viability, T/C [34]: 72.5%
viability, T/C [35]: 78.5%
viability, T/C [36]: 52.2%

Cn1nccc1Nc1nccc(-c2ccn(C(CO)c3ccc(Cl)c(F)c3)c(=O)c2)n1 (stereo not drawn) + Cc1nc(NC(=O)N2CCCC2C(N)=O)sc1-c1ccnc(C(C)(C)C(F)(F)F)c1
IC50 (second compound 0.0316 µM): > 10 µM
IC50 (second compound 0.1 µM): > 10 µM
IC50 (second compound 0.316 µM): > 10 µM
IC50 (second compound 1 µM): > 10 µM
IC50 (second compound 3.16 µM): > 10 µM
IC50 (second compound 10 µM): > 10 µM
viability, T/C [1]: 107%
viability, T/C [2]: 97.7%
viability, T/C [3]: 103%
viability, T/C [4]: 109%
viability, T/C [5]: 97.2%
viability, T/C [6]: 89.2%
viability, T/C [7]: 114%
viability, T/C [8]: 104%
viability, T/C [9]: 100%
viability, T/C [10]: 92.6%
viability, T/C [11]: 96.7%
viability, T/C [12]: 97.8%
viability, T/C [13]: 104%
viability, T/C [14]: 103%
viability, T/C [15]: 94.1%
viability, T/C [16]: 98.6%
viability, T/C [17]: 98.5%
viability, T/C [18]: 83.3%
viability, T/C [19]: 91.6%
viability, T/C [20]: 95.2%
viability, T/C [21]: 93.5%
viability, T/C [22]: 84.9%
viability, T/C [23]: 98.6%
viability, T/C [24]: 80.8%
viability, T/C [25]: 78.9%
viability, T/C [26]: 86.1%
viability, T/C [27]: 87%
viability, T/C [28]: 77.9%
viability, T/C [29]: 85.4%
viability, T/C [30]: 64.7%
viability, T/C [31]: 71%
viability, T/C [32]: 70.7%
viability, T/C [33]: 72.2%
viability, T/C [34]: 75%
viability, T/C [35]: 77.8%
viability, T/C [36]: 50.9%
